Results published in the NIST ThermoML archive (doi:10.1016/j.fluid.2018.10.024).
± gives the expanded uncertainty stated by the source.

Tests used:
[1] = xn = mol fraction of the nth substance listed; conditions: 101 kPa, Liquid; for viscosity: Capillary tube (Ostwald / Ubbelohde) method; for mass density: Vibrating tube method
[2] = refractive index (Na D-line) (dimensionless); xn = mol fraction of the nth substance listed; conditions: 101 kPa, Liquid, Standard Abbe refractometry

ClC(Cl)Cl [trichloromethane] + CC(C)=O
Conditions	mass density, [1] [kg/m3]	refractive index, [2]	viscosity, [1] [mPa·s]
298.15 K, x2 = 0	1478.75 ± 0.37	1.4422 ± 0.0006	0.5916 ± 0.0044
298.15 K, x2 = 0.0997	1419.64 ± 0.34	1.4342 ± 0.0006	0.589 ± 0.0043
298.15 K, x2 = 0.1996	1357.58 ± 0.3	1.4262 ± 0.0006	0.5814 ± 0.0042
298.15 K, x2 = 0.2993	1293.35 ± 0.26	1.4192 ± 0.0006	0.5684 ± 0.0041
298.15 K, x2 = 0.3999	1226.35 ± 0.22	1.4112 ± 0.0006	0.5412 ± 0.0039
298.15 K, x2 = 0.4979	1159.27 ± 0.2	1.4029 ± 0.0006	0.5126 ± 0.0037
298.15 K, x2 = 0.599	1088.31 ± 0.18	1.3941 ± 0.0006	0.4741 ± 0.0034
298.15 K, x2 = 0.6993	1016.22 ± 0.17	1.3851 ± 0.0006	0.435 ± 0.0032
298.15 K, x2 = 0.8008	941.27 ± 0.17	1.377 ± 0.0006	0.3975 ± 0.003
298.15 K, x2 = 0.9006	864.78 ± 0.19	1.3676 ± 0.0006	0.3443 ± 0.0027
303.15 K, x2 = 0	1469.16 ± 0.37	1.4397 ± 0.0006	0.558 ± 0.0041
303.15 K, x2 = 0.0997	1409.35 ± 0.34	1.4309 ± 0.0006	0.5571 ± 0.0041
303.15 K, x2 = 0.1996	1347.6 ± 0.29	1.4252 ± 0.0006	0.5571 ± 0.0041
303.15 K, x2 = 0.2993	1284.12 ± 0.25	1.418 ± 0.0006	0.5373 ± 0.0039
303.15 K, x2 = 0.3999	1217.87 ± 0.22	1.4105 ± 0.0006	0.5156 ± 0.0037
303.15 K, x2 = 0.4979	1151.19 ± 0.19	1.4019 ± 0.0006	0.4913 ± 0.0036
303.15 K, x2 = 0.599	1080.44 ± 0.17	1.3924 ± 0.0006	0.4551 ± 0.0033
303.15 K, x2 = 0.6993	1008.68 ± 0.16	1.3841 ± 0.0006	0.4188 ± 0.0031
303.15 K, x2 = 0.8008	934.43 ± 0.17	1.3744 ± 0.0006	0.3802 ± 0.0029
303.15 K, x2 = 0.9006	858.83 ± 0.19	1.3656 ± 0.0006	0.338 ± 0.0026
308.15 K, x2 = 0	1460.01 ± 0.36	1.4356 ± 0.0006	0.5333 ± 0.004
308.15 K, x2 = 0.0997	1402.33 ± 0.33	1.4281 ± 0.0006	0.5329 ± 0.004
308.15 K, x2 = 0.1996	1341.01 ± 0.29	1.4215 ± 0.0006	0.5303 ± 0.0039
308.15 K, x2 = 0.2993	1276.96 ± 0.25	1.4141 ± 0.0006	0.5185 ± 0.0038
308.15 K, x2 = 0.3999	1210.11 ± 0.22	1.4055 ± 0.0006	0.4968 ± 0.0036
308.15 K, x2 = 0.4979	1143.34 ± 0.19	1.3968 ± 0.0006	0.4693 ± 0.0034
308.15 K, x2 = 0.599	1073.05 ± 0.17	1.3875 ± 0.0006	0.4396 ± 0.0033
308.15 K, x2 = 0.6993	1001.9 ± 0.16	1.3791 ± 0.0006	0.4028 ± 0.003
308.15 K, x2 = 0.8008	927.99 ± 0.17	1.3702 ± 0.0006	0.3593 ± 0.0028
308.15 K, x2 = 0.9006	852.47 ± 0.19	1.3601 ± 0.0006	0.3254 ± 0.0026
313.15 K, x2 = 0	1450.39 ± 0.36	1.4338 ± 0.0006	0.5072 ± 0.0038
313.15 K, x2 = 0.0997	1393.77 ± 0.33	1.4276 ± 0.0006	0.5067 ± 0.0038
313.15 K, x2 = 0.1996	1332.05 ± 0.29	1.4202 ± 0.0006	0.4994 ± 0.0037
313.15 K, x2 = 0.2993	1268.04 ± 0.25	1.4128 ± 0.0006	0.4876 ± 0.0036
313.15 K, x2 = 0.3999	1201.58 ± 0.21	1.4048 ± 0.0006	0.468 ± 0.0035
313.15 K, x2 = 0.4979	1135.08 ± 0.19	1.3965 ± 0.0006	0.4429 ± 0.0033
313.15 K, x2 = 0.599	1064.85 ± 0.17	1.3873 ± 0.0006	0.4149 ± 0.0031
313.15 K, x2 = 0.6993	993.86 ± 0.16	1.3787 ± 0.0006	0.383 ± 0.0029
313.15 K, x2 = 0.8008	920.68 ± 0.17	1.3682 ± 0.0006	0.3453 ± 0.0027
313.15 K, x2 = 0.9006	846.27 ± 0.19	1.3599 ± 0.0006	0.3056 ± 0.0025
318.15 K, x2 = 0	1440.03 ± 0.35	1.4297 ± 0.0006	0.4849 ± 0.0037
318.15 K, x2 = 0.0997	1383.86 ± 0.32	1.4244 ± 0.0006	0.4834 ± 0.0037
318.15 K, x2 = 0.1996	1322.43 ± 0.28	1.4175 ± 0.0006	0.4798 ± 0.0036
318.15 K, x2 = 0.2993	1258.8 ± 0.24	1.4094 ± 0.0006	0.4684 ± 0.0035
318.15 K, x2 = 0.3999	1192.83 ± 0.21	1.4008 ± 0.0006	0.4483 ± 0.0034
318.15 K, x2 = 0.4979	1126.82 ± 0.19	1.3929 ± 0.0006	0.4207 ± 0.0032
318.15 K, x2 = 0.599	1057.03 ± 0.17	1.3839 ± 0.0006	0.389 ± 0.003
318.15 K, x2 = 0.6993	986.42 ± 0.16	1.3754 ± 0.0006	0.3583 ± 0.0028
318.15 K, x2 = 0.8008	913.61 ± 0.17	1.365 ± 0.0006	0.3261 ± 0.0026
318.15 K, x2 = 0.9006	839.75 ± 0.19	1.3548 ± 0.0006	0.2862 ± 0.0024
